Tests used:
A549 = test: cells; settings: Homo sapiens
SW-620 = test: cells; settings: Homo sapiens
[1] = Selectivity ratio of IC50 for inhibition of human PLK3 using ATF2 as substrate to IC50 for inhibition of human PLK1 using ATF2 as substrate
CCRF-CEM = test: cells; settings: Homo sapiens
KG-1 = test: cells; settings: Homo sapiens
[2] = biological target: Serine/threonine-protein kinase PLK1 (Homo sapiens, UniProt P53350); test: Inhibition of human PLK1 using ATF2 as substrate incubated for 40 mins in presence of [gamma-33P]ATP/Mg acetate by scintillation counting analysis
NCI-H460 = test: cells; settings: Homo sapiens
K562 = test: cells; settings: Homo sapiens
[3] = biological target: Serine/threonine-protein kinase PLK2 (Homo sapiens, UniProt Q9NYY3); test: Inhibition of human PLK2 using ATF2 as substrate incubated for 40 mins in presence of [gamma-33P]ATP/Mg acetate by scintillation counting analysis
PC-9 = test: cells; settings: Homo sapiens
[4] = Selectivity ratio of IC50 for inhibition of human PLK2 using ATF2 as substrate to IC50 for inhibition of human PLK1 using ATF2 as substrate
[5] = biological target: Serine/threonine-protein kinase PLK3 (Homo sapiens, UniProt Q9H4B4); test: Inhibition of human PLK3 using ATF2 as substrate incubated for 40 mins in presence of [gamma-33P]ATP/Mg acetate by scintillation counting analysis
HL-60 = test: cells; settings: Homo sapiens
[6] = Metabolic stability in human liver microsomes assessed as intrinsic clearance in microsome measured per mg protein preincubated for 5 mins followed by NADPH addition by LC-MS/MS analysis; assay type: ADME; settings: read-out: CLH
[7] = MRT (0 to t) in C57BL/6 mouse at 10 mg/kg, po measured for 0.5 to 12 htr by LC-MS/MS analysis; assay type: ADME, organism-based; settings: in vivo, time 0.5-12 hrs
[8] = Oral bioavailability in C57BL/6 mouse at 10 mg/kg measured for 0.5 to […] htr by LC-MS/MS analysis; assay type: ADME, organism-based; settings: in vivo, time 0.5-12 hrs
[9] = Tmax in C57BL/6 mouse at 10 mg/kg, po measured for 0.5 to 12 htr by LC-MS/MS analysis; assay type: ADME, organism-based; settings: in vivo, time 0.5-12 hrs
[10] = Volume of distribution at steady state in C57BL/6 mouse at 1 mg/kg, iv measured for 0.5 to 12 htr by LC-MS/MS analysis; assay type: ADME, organism-based; settings: in vivo, time 0.5-12 hrs, read-out: Vdss
[11] = Metabolic stability in mouse liver microsomes assessed as intrinsic clearance preincubated for 5 mins followed by NADPH addition by LC-MS/MS analysis; assay type: ADME, Microsome; settings: read-out: CLH
[12] = AUC (0 to infinity) in C57BL/6 mouse at 1 mg/kg, iv measured for 0.5 to 12 htr by LC-MS/MS analysis; assay type: ADME, organism-based; settings: in vivo, time 0.5-12 hrs
[13] = MRT (0 to t) in C57BL/6 mouse at 1 mg/kg, iv measured for 0.5 to 12 htr by LC-MS/MS analysis; assay type: ADME, organism-based; settings: in vivo, time 0.5-12 hrs
[14] = Metabolic stability in human liver microsomes assessed as half life preincubated for 5 mins followed by NADPH addition by LC-MS/MS analysis; assay type: ADME, Microsome
[15] = Cmax in C57BL/6 mouse at 1 mg/kg, iv measured for 0.5 to […] htr by LC-MS/MS analysis; assay type: ADME, organism-based; settings: in vivo, time 0.5-12 hrs
[16] = AUC (0 to t) in C57BL/6 mouse at 10 mg/kg, po measured for 0.5 to […] htr by LC-MS/MS analysis; assay type: ADME, organism-based; settings: in vivo, time 0.5-12 hrs
[17] = C0 in C57BL/6 mouse at 1 mg/kg, iv measured for 0.5 to 12 htr by LC-MS/MS analysis; assay type: ADME, organism-based; settings: in vivo, time 0.5-12 hrs
[18] = Metabolic stability in dog liver microsomes assessed as intrinsic clearance preincubated for 5 mins followed by NADPH addition by LC-MS/MS analysis; assay type: ADME, Canis lupus familiaris, Microsome; settings: read-out: CLH
[19] = Half life in C57BL/6 mouse at 1 mg/kg, iv measured for 0.5 to 12 htr by LC-MS/MS analysis; assay type: ADME, organism-based; settings: in vivo, time 0.5-12 hrs
[20] = Metabolic stability in dog liver microsomes assessed as intrinsic clearance in microsome measured per mg protein preincubated for 5 mins followed by NADPH addition by LC-MS/MS analysis; assay type: ADME, Canis lupus familiaris; settings: read-out: CLH
[21] = Metabolic stability in mouse liver microsomes assessed as intrinsic clearance in microsome measured per mg protein preincubated for 5 mins followed by NADPH addition by LC-MS/MS analysis; assay type: ADME; settings: read-out: CLH
[22] = AUC (0 to infinity) in C57BL/6 mouse at 10 mg/kg, po measured for 0.5 to 12 htr by LC-MS/MS analysis; assay type: ADME, organism-based; settings: in vivo, time 0.5-12 hrs
[23] = Metabolic stability in dog liver microsomes assessed as half life preincubated for 5 mins followed by NADPH addition by LC-MS/MS analysis; assay type: ADME, Canis lupus familiaris, Microsome
[24] = AUC (0 to t) in C57BL/6 mouse at 1 mg/kg, iv measured for 0.5 to […] htr by LC-MS/MS analysis; assay type: ADME, organism-based; settings: in vivo, time 0.5-12 hrs
[25] = Half life in C57BL/6 mouse at 10 mg/kg, po measured for 0.5 to 12 htr by LC-MS/MS analysis; assay type: ADME, organism-based; settings: in vivo, time 0.5-12 hrs
[26] = Metabolic stability in human liver microsomes assessed as intrinsic clearance preincubated for 5 mins followed by NADPH addition by LC-MS/MS analysis; assay type: ADME, Microsome; settings: read-out: CLH
[27] = Cmax in C57BL/6 mouse at 10 mg/kg, po measured for 0.5 to […] htr by LC-MS/MS analysis; assay type: ADME, organism-based; settings: in vivo, time 0.5-12 hrs
[28] = Clearance in C57BL/6 mouse at 1 mg/kg, iv measured for 0.5 to […] htr by LC-MS/MS analysis; assay type: ADME, organism-based; settings: in vivo, time 0.5-12 hrs
[29] = Metabolic stability in mouse liver microsomes assessed as half life preincubated for 5 mins followed by NADPH addition by LC-MS/MS analysis; assay type: ADME, Microsome
[30] = Tmax in C57BL/6 mouse at 1 mg/kg, iv measured for 0.5 to 12 htr by LC-MS/MS analysis; assay type: ADME, organism-based; settings: in vivo, time 0.5-12 hrs

Sequence of Serine/threonine-protein kinase PLK1 (P53350 whole entry): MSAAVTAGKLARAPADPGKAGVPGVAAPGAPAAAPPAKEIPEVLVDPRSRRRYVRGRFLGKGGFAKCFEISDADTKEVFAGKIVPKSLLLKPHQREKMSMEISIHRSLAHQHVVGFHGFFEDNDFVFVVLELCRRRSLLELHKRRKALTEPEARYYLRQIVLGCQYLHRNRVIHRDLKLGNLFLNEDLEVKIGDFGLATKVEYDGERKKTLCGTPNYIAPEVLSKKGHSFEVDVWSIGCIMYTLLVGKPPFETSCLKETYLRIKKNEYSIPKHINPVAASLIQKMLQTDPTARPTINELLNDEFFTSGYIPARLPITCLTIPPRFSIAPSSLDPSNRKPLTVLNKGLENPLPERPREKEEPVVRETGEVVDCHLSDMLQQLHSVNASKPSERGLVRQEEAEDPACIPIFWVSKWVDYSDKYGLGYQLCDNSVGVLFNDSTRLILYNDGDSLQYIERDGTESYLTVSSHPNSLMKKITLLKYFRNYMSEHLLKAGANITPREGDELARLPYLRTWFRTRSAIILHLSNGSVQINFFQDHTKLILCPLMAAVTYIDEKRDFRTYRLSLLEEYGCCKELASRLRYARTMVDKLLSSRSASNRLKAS
Sequence of Serine/threonine-protein kinase PLK3 (Q9H4B4 whole entry): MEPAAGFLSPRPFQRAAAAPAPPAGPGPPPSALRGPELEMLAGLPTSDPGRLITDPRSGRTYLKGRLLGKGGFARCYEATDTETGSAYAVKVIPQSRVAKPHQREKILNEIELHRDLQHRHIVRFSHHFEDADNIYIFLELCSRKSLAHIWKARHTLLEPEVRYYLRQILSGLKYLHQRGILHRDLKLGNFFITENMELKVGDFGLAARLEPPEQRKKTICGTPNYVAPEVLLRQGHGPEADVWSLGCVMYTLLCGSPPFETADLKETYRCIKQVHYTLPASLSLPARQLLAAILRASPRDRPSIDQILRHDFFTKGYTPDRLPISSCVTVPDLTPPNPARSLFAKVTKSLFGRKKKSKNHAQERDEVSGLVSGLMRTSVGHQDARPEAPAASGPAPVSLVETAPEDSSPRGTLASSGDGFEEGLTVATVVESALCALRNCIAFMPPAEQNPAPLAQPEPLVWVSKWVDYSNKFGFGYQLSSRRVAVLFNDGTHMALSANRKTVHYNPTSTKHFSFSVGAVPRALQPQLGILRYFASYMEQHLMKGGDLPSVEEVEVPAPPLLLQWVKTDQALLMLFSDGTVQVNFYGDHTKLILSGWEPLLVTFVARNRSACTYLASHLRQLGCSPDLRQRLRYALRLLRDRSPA
Sequence of Serine/threonine-protein kinase PLK2 (Q9NYY3 whole entry): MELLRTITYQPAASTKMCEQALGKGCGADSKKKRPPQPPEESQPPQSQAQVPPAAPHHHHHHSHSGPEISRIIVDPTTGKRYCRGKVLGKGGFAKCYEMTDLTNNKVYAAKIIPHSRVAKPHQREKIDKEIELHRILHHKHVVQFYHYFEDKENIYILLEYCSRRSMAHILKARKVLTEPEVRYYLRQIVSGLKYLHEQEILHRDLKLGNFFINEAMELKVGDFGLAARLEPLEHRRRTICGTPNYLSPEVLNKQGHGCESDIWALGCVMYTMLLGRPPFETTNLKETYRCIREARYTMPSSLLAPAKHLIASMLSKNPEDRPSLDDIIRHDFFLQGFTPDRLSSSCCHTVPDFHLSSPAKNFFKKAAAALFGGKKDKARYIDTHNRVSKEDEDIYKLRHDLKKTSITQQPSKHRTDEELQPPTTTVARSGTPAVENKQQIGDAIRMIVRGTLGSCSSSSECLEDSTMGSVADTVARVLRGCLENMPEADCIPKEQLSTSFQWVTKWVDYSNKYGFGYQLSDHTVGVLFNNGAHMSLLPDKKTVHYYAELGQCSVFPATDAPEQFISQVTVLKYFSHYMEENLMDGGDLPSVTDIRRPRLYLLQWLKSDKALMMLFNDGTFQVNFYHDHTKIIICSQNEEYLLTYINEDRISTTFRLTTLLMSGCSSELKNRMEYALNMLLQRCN

CC[C@@H]1C(=O)N(C)c2cnc(Nc3cc(N4CCN(C)CC4)cc(F)c3OC[C@H](C)O)nc2N1C1CCCC1
IC50 (A549): 1540 nM
IC50 (SW-620): 18 nM
ratio [1]: 373
IC50 (CCRF-CEM): 63 nM
IC50 (KG-1): 0.588 µM
IC50 [2]: 15 nM
IC50 (NCI-H460): 326 nM
IC50 (K562): 7.7 nM
IC50 [3]: > 10 µM
IC50 (PC-9): 1990 nM
ratio [4]: > 658
IC50 [5]: 3.67 µM
IC50 (HL-60): 54 nM

CC[C@@H]1C(=O)N(C)c2cnc(Nc3cc(N4CCN(C)CC4)cc(F)c3OCCCO)nc2N1C1CCCC1
IC50 (A549): 103 nM
IC50 (SW-620): 18 nM
ratio [1]: 178
IC50 (CCRF-CEM): 90 nM
IC50 (KG-1): 4.81 µM
IC50 [2]: 11 nM
IC50 (NCI-H460): 27 nM
IC50 (K562): 1780 nM
IC50 [3]: 7.9 µM
IC50 (PC-9): 65 nM
ratio [4]: 700
IC50 [5]: 2 µM
IC50 (HL-60): 31 nM

CC[C@@H]1C(=O)N(C)c2cnc(Nc3ccc(C(=O)NC4CCN(C)CC4)cc3OC)nc2N1C1CCCC1 [BI-2536]
microsomal CLint [6]: 24.1 µL/min/mg
MRT last [7]: 2.1 h
bioavailability [8]: 8.2%
Tmax [9]: 25.2 min
Vd [10]: 6 L/kg
CLint scaled [11]: 136 mL/min/kg
AUC(0-inf) [12]: 117 ng·h/mL
MRT last [13]: 42 min
half-life [14]: 57.4 min
Cmax [15]: 175 ng/mL
AUC(0-t) [16]: 89 ng·h/mL
C0 [17]: 227 ng/mL
CLint scaled [18]: 126 mL/min/kg
half-life [19]: 41.4 min
microsomal CLint [20]: 50.6 µL/min/mg
microsomal CLint [21]: 34.5 µL/min/mg
AUC(0-inf) [22]: 96 ng·h/mL
half-life [23]: 27.4 min
AUC(0-t) [24]: 116 ng·h/mL
half-life [25]: 84 min
CLint scaled [26]: 30.3 mL/min/kg
Cmax [27]: 40 ng/mL
clearance [28]: 143 mL/min/kg
half-life [29]: 40.2 min
Tmax [30]: 4.98 min

CC[C@@H]1C(=O)N(C)c2cnc(Nc3cc(N4CCN(C)CC4)cc(F)c3OCCCO)nc2N1C(C)C
IC50 (A549): 492 nM
IC50 (SW-620): 83 nM
ratio [1]: 586
IC50 (CCRF-CEM): 112 nM
IC50 (KG-1): 0.342 µM
IC50 [2]: 16 nM
IC50 (NCI-H460): 95 nM
IC50 (K562): 7.7 nM
IC50 [3]: > 10 µM
IC50 (PC-9): 250 nM
ratio [4]: > 625
IC50 [5]: 9.37 µM
IC50 (HL-60): 77 nM

CC[C@@H]1C(=O)N(C)c2cnc(Nc3cc(N4CCN(C)CC4)cc(F)c3OCCO)nc2N1C1CCCC1
IC50 (A549): 57 nM
IC50 (SW-620): 6.8 nM
ratio [1]: 306
IC50 (CCRF-CEM): 64 nM
IC50 (KG-1): > 10 µM
IC50 [2]: 11 nM
IC50 (NCI-H460): 76 nM
IC50 (K562): 5190 nM
IC50 [3]: > 10 µM
IC50 (PC-9): 82 nM
ratio [4]: > 952
IC50 [5]: 3.22 µM
IC50 (HL-60): 39 nM

CN1CCN(c2ccc(OC(F)(F)F)c(Nc3ncc4c(n3)-c3c(c(C(N)=O)nn3CCO)CC4)c2)CC1 [ONVANSERTIB]
IC50 (A549): 45 nM
IC50 (SW-620): 18 nM
IC50 (CCRF-CEM): 34 nM
IC50 (KG-1): 8.66 µM
IC50 (NCI-H460): 36 nM
IC50 (K562): 12 nM
IC50 (PC-9): 58 nM
IC50 (HL-60): 89 nM

CC[C@@H]1C(=O)N(C)c2cnc(Nc3cc(N4CCN(C)CC4)cc(Cl)c3OCCO)nc2N1C1CCCC1
ratio [1]: 576
IC50 [2]: 11 nM
IC50 [3]: 7.85 µM
ratio [4]: 764
IC50 [5]: 5.76 µM

CC[C@@H]1C(=O)N(C)c2cnc(Nc3cc(N4CCC(N)CC4)ccc3OCCO)nc2N1C1CCCC1
ratio [1]: > 292
IC50 [2]: 34 nM
IC50 [3]: > 10 µM
ratio [4]: > 292
IC50 [5]: > 10 µM

CC[C@@H]1C(=O)N(C)c2cnc(Nc3cc(N4CCC(NC(=O)OC(C)(C)C)CC4)ccc3OCCO)nc2N1C1CCCC1
ratio [1]: > 67.1
IC50 [2]: 149 nM
IC50 [3]: > 10 µM
ratio [4]: > 67.1
IC50 [5]: > 10 µM

CC[C@@H]1C(=O)N(C)c2cnc(Nc3cc(N4CCN(C)CC4)cc(Cl)c3OCCCO)nc2N1C(C)C
ratio [1]: > 333
IC50 [2]: 20 nM
IC50 [3]: > 10 µM
ratio [4]: > 333
IC50 [5]: > 10 µM

CC[C@@H]1C(=O)N(C)c2cnc(Nc3cc(N4CCN(C)CC4)cc(F)c3OC)nc2N1C1CCCC1
ratio [1]: 108
IC50 [2]: 11 nM
IC50 [3]: 0.459 µM
ratio [4]: 42
IC50 [5]: 1.18 µM

CC[C@@H]1C(=O)N(C)c2cnc(Nc3cc(N4CCN(CC)CC4)cc(F)c3OC)nc2N1C1CCCC1
ratio [1]: 107
IC50 [2]: 12 nM
IC50 [3]: 0.61 µM
ratio [4]: 51
IC50 [5]: 1.29 µM

CC[C@@H]1C(=O)N(C)c2cnc(Nc3cc(N4CCN(CC)CC4)ccc3OCCCO)nc2N1C1CCCC1
ratio [1]: 175
IC50 [2]: 26 nM
IC50 [3]: > 10 µM
ratio [4]: > 357
IC50 [5]: 4.91 µM

CC[C@@H]1C(=O)N(C)c2cnc(Nc3cc(N4CCN(CC)CC4)cc(F)c3OCCO)nc2N1C1CCCC1
ratio [1]: > 500
IC50 [2]: 20 nM
IC50 [3]: > 10 µM
ratio [4]: > 500
IC50 [5]: > 10 µM
